Experimental findings from US20240261375A1, “PHARMACEUTICAL COMPOSITION FOR TREATING OR PREVENTING DISORDER ASSOCIATED WITH ADMINISTRATION OF ANTICANCER AGENT” (LTT BIO-PHARMA CO., LTD., priority 2021, published 2024) are described below.

Assay [1] has as its system oxaliplatin-induced allodynia model rats. As to the kind of experiment: Von Frey test in oxaliplatin-induced allodynia model rats. It counts as in vivo, rat. To be noted: OXA 4 mg/kg i.p. 8 doses, prophylactic, FIG. 1. On the procedure:
Six to eight-week-old male SD rats (from 200 to 400 g) were used, and oxaliplatin (hereinafter may be abbreviated as OXA) was administered into the peritoneal cavity of rats at a dose of 4 mg/kg. A total of eight doses were given with a regimen of twice weekly for four weeks (Days 1, 2, 7, 8, 13, 14, 19, and 20). A solvent for OXA, i.e., a 5% glucose solution, was similarly administered to a control group. Elplat I.V. Infusion Solution 100 mg (Yakult Honsha Co., Ltd.) was used as OXA.
Laboratory animals were divided into five groups: a control group, an OXA administration group, and groups each receiving administration of OXA and PC-SOD 0.1, 0.3, or 1 mg/kg (OXA+PC-SOD administration groups) (n=8 per group). In an experiment of prevention, PC-SOD was administered into the caudal vein from 5 to 15 minutes after administration of OXA in the OXA+PC-SOD administration group. […]
Data were expressed with mean±standard error (SEM). Statistical processing of the results was performed by Student's t test for comparison of two groups and ANOVA one way test (post-hoc Tukey's test) for comparison of three or more groups, and a statistically significant difference was determined when the hazard ratio was 5% or lower (*, **, and *** in the figures: p<0.05, p<0.01, and p<0.001, respectively).

Assay [2] deals with OXA-induced allodynia model rats. As to the kind of experiment: Cold stimulation (acetone) test in OXA-induced allodynia model rats. The format is in vivo, rat. To be noted: OXA 10 mg/kg i.p. Days 1 and 2; PC-SOD 1 mg/kg caudal vein, prophylactic; FIG. 2. On the procedure: Five-week-old male SD rats (from 200 to 400 g) were used as laboratory animals, and OXA was administered into the peritoneal cavity of rats at a dose of 10 mg/kg. A total of two doses were given (Days 1 and 2). A solvent for OXA, i.e., a 5% glucose solution, was similarly administered to a control group.
Laboratory animals were divided into three groups (n=8 per group): a control group, an OXA administration group, and a group receiving administration of OXA and PC-SOD 1 mg/kg (OXA+PC-SOD administration group). For the OXA+PC-SOD administration group, PC-SOD was administered into the caudal vein from 15 minutes after administration of OXA as prophylactic administration. A total of two doses were given (Days 1 and 2). A solvent for PC-SOD was similarly administered to the control group and the OXA administration group.
Rats were placed in a container with a wire net bottom and acclimatized for 30 minutes, and then 0.1 mL of acetone was sprayed onto their hindlimb by using a spray for an organic solvent (No. 3530, Furupla Co., Ltd.) to give a cold stimulus by utilizing a cooling action at the time of vaporization of acetone. […] Specifically, the responses were assessed by scoring with four levels (Scores 0, 1, 2, and 3). Score 0 was to be given if animals were unresponsive as in a resting state. […]

The test system of assay [3] is L5 DRG neurons of OXA-treated rats. Nature of the assay: Assessment of pathological damage to DRG (HE staining). It counts as in vivo, rat. To be noted: OXA+PC-SOD 1 mg/kg; FIG. 4. From the text: A tissue of L5 DRG neuron was collected, stored in a 10% neutral buffered formalin solution, fixed, and then washed with PBS. The tissue was subjected to 70% ethanol substitution to prepare a paraffin block, and the block was thinly sliced and subjected to HE staining. The thickness of the thinly sliced sample block was from 2 to 3 μm. By using the prepared pathological sample slide, one to three images of each sample were captured at 200 and 400-fold magnifications by the optical microscope function of All-in-One Fluorescence Microscope (BZ-X800, Keyence Corporation). Multinucleation of the nucleolus of DRG neurons and abnormal morphology of the nucleolus were assessed as indicators of DRG neuron disorder (Scale bar=50 μm).

For assay [4], the system named is Large intestine cancer cells (colo320, HCT116). Nature of the assay: Proliferation of large intestine cancer cells (CCK-8). The format is cell-based. To be noted: OXA dilutions + PC-SOD 50 μg/mL, 72 hours; FIG. 6. On the procedure: Large intestine cancer cells (colo320, HCT116) were added to RPM1640 medium (Thermo Fisher Scientific Inc.) containing 10% fetal bovine serum and 100 units/mL penicillin-streptomycin (Gibco BRL) and cultured at 37° C. in a 5% CO2 incubator.
Cells were seeded on a 96-well plate at 10 000 cells/well and treated with a test solution 24 hours later. A test solution containing OXA alone was diluted 3-fold from 100 μM (10 levels) and added to a 96-well plate. A test solution containing OXA+PC-SOD was obtained by adding the same concentrations of OXA to PC-SOD (50 μg/mL) (n=3 per group). After cells were cultured for 72 hours, a CCK-8 solution was added in a volume of 1/10 of the solution in each well, and the mixture was measured at 490 nm of absorbance (Tecan, Tecan Japan). Data were expressed with mean±standard error (SEM). It should be noted that experiment conditions were allowed to be changed as required.

The next assay deals with RAW cells. Nature of the assay: Toxicity of anticancer agents against RAW cells (CellTiter-Glo viable cell count). The format is cell-based. To be noted: gemcitabine, oxaliplatin, cisplatin or carboplatin with simultaneous PC-SOD, 24 hours; FIG. 12-2. On the procedure:
RAW cells were seeded on a 96-well plate at 20 000 cells/well (D-MEM high glucose medium containing 10% inactivated FBS). […] The number of viable cells was counted 24 hours later by measuring chemical luminescence by using CellTiter-Glo™ 2.0 Cell Viability Assay (Promega) and a plate reader (Tecan, Infinite M Plex). Cells for four wells were analyzed for each group.
A general note: ATP-based viability assays read luminescence as a measure of living cells.

Turning to “lecithinized superoxide dismutase [PC-SOD]”, the “decrease in pain sensation threshold caused by OXA (von Frey test)” value in assay [1] (PC-SOD 1 mg/kg caudal vein) is listed as “significantly suppressed”; in assay [1] (PC-SOD 0.1, 0.3 and 1 mg/kg caudal vein), “suppressed by PC-SOD in a concentration-dependent manner”. The “increase in score for cold stimulus (acetone test)” value in assay [2] is recorded as “significantly suppressed”. Further, in assay [3], the “pathological damage to DRG caused by OXA (multinucleation and abnormal morphology of nucleoli)” value is “a suppressive effect on pathological damage to DRG caused by OXA was shown”. The “influence on the anti-tumor effect of oxaliplatin (cell proliferation)” value in assay [4] is “did not affect the anti-tumor effect of oxaliplatin”. In the assay on RAW cells, the “anticancer agent-dependent decrease in number of viable RAW cells” value was “significantly suppressed the anticancer agent-dependent decreases in the number of viable cells dependently on the concentration of PC-SOD”.
